The source of these data is ChEMBL document CHEMBL1201862, “PubChem BioAssay data set” (2004).

Some test systems named below: ACHN; CCRF-CEM; HCT-116; KM12; LOX IMVI; MDA-MB-435; MDA-N; MOLT-4; Malme-3M; NCI-H23; NCI-H522; SK-MEL-5; SNB-19; SR; SW-620; MDA-MB-231; OVCAR-8; UACC-257; SNB-75.
What all share (test): NCI-60 cell line screen, 48 h

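Cells were grown in 96-well plates and exposed to each compound for 48 hours at five concentrations; endpoints were interpolated linearly between bracketing concentrations, or set to the highest concentration if not reached. Here, GI50 denotes the concentration required for 50% inhibition of growth.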 Active and inactive are the calls of the source. Rule as the data show it: active = GI50 up to about 1.1 µM and inactive = higher.

With `OC(c1ccccc1)c1c(-c2ccccc2)oc(-c2ccccc2)c1C(O)c1ccccc1` (stereo unspecified), the GI50 with ACHN was 6.14 µM (inactive); in the assay with CCRF-CEM it was 3.73 µM (inactive); in the assay on HCT-116, 5.65 µM (inactive); in the assay on KM12, 7.24 µM (inactive); with LOX IMVI it was 11.1 µM (inactive); in the assay with MDA-MB-435 it was 8.04 µM (inactive). Moreover, the GI50 with MDA-N was 9.1 µM (inactive); in the assay on MOLT-4, 5.06 µM (inactive); in the assay with Malme-3M it was 12.3 µM (inactive); with NCI-H23, 9.06 µM (inactive); in the assay on NCI-H522 it was 3.15 µM (inactive); with SK-MEL-5 it was 11.4 µM (inactive). Besides, the GI50 in the assay on SNB-19 was 14.8 µM (inactive); with SR, 9.95 µM (inactive); in the assay on SW-620, 14.7 µM (inactive).

Take `COc1ccccc1-c1cc(=O)c2ccccc2n1C1CC1`: the GI50 in the assay with ACHN is 2.2 µM (inactive); in the assay with CCRF-CEM, 4.83 µM (inactive); in the assay with HCT-116 it was 1.23 µM (inactive); with KM12, 2.37 µM (inactive); with LOX IMVI, 3.89 µM (inactive); in the assay on MDA-MB-231 it was 3.76 µM (inactive). The GI50 with MDA-MB-435 was 3.42 µM (inactive); with MDA-N, 4.06 µM (inactive); with MOLT-4, 19.4 µM (inactive); in the assay on NCI-H23 it was 4.99 µM (inactive); in the assay on NCI-H522, 0.865 µM (active); in the assay on OVCAR-8, 3.79 µM (inactive). The GI50 was 4.52 µM (inactive) in the assay on SK-MEL-5; 4.86 µM (inactive) in the assay on SNB-19; 2.95 µM (inactive) in the assay on SR; 3.13 µM (inactive) in the assay with SW-620; 8.2 µM (inactive) in the assay on UACC-257.

With `C[N+]1(C)CCC(C#N)(c2ccccc2)CC1`, the GI50 in the assay with ACHN was > 100 µM (inactive); with CCRF-CEM it was 0.65 µM (active); with HCT-116 it was > 100 µM (inactive); in the assay on KM12, > 100 µM (inactive); in the assay on MDA-N, > 100 µM (inactive); with MOLT-4, > 100 µM (inactive). Moreover, the GI50 was > 100 µM (inactive) with Malme-3M; > 100 µM (inactive) in the assay on NCI-H23; > 100 µM (inactive) with OVCAR-8; > 100 µM (inactive) with SK-MEL-5; > 100 µM (inactive) in the assay on SNB-19; 35.4 µM (inactive) in the assay on SNB-75. For the same compound, the GI50 in the assay with SR, in the assay with SW-620 and in the assay with UACC-257 was > 100 µM (inactive) in each case.

For `Cc1ccc(NC(=O)CCc2n[nH]c(=S)o2)cc1`, the GI50 in the assay on ACHN is > 100 µM (inactive); in the assay on CCRF-CEM it was 62.8 µM (inactive); in the assay with HCT-116 it was > 100 µM (inactive); with KM12, > 100 µM (inactive); with LOX IMVI, > 100 µM (inactive); in the assay with MOLT-4 it was > 100 µM (inactive). For the same compound, the GI50 in the assay on Malme-3M, in the assay with NCI-H23, in the assay on NCI-H522, with OVCAR-8, in the assay on SK-MEL-5 and in the assay on SNB-19 was > 100 µM (inactive) throughout. Moreover, the GI50 in the assay on SNB-75, in the assay with SR, in the assay with SW-620 and with UACC-257 was > 100 µM (inactive) throughout.

Consider `CN(C)CC/C(=N\Nc1ccc(Cl)cc1Cl)c1ccccc1`, for which the GI50 is 15 µM (inactive) with ACHN; 12.7 µM (inactive) with CCRF-CEM; 13.8 µM (inactive) in the assay on HCT-116; 16 µM (inactive) in the assay with KM12; 14.8 µM (inactive) with LOX IMVI; 5.73 µM (inactive) in the assay on MOLT-4. Besides, the GI50 in the assay with Malme-3M is 23.3 µM (inactive); in the assay on NCI-H23, 17 µM (inactive); with NCI-H522, > 10 µM (inactive); in the assay on OVCAR-8 it was 17.7 µM (inactive); in the assay with SK-MEL-5 it was 14.6 µM (inactive); in the assay with SNB-19 it was 16.1 µM (inactive). Besides, the GI50 was 7.74 µM (inactive) in the assay on SNB-75, 12 µM (inactive) in the assay with SR, 16 µM (inactive) with SW-620 and 15.9 µM (inactive) with UACC-257.

For `CN(C=O)/C=C/c1cc(O)ccc1O`, the GI50 in the assay with ACHN is 16.1 µM (inactive); with CCRF-CEM it was 18.7 µM (inactive); with HCT-116, 33 µM (inactive); with KM12 it was 63.7 µM (inactive); in the assay on LOX IMVI, 23.2 µM (inactive); in the assay with MOLT-4, 10.8 µM (inactive). For the same compound, the GI50 in the assay with Malme-3M was 39.4 µM (inactive); with NCI-H23 it was 36.8 µM (inactive); in the assay with NCI-H522 it was 4.17 µM (inactive); with OVCAR-8 it was 30.3 µM (inactive); in the assay with SK-MEL-5, 42 µM (inactive); with SNB-19, > 72.8 µM (inactive). The GI50 in the assay with SNB-75 was 21.7 µM (inactive); in the assay on SR, 20.5 µM (inactive); in the assay with SW-620, 12.8 µM (inactive); with UACC-257, 30.3 µM (inactive).

As for `CC(C)(C)OC(=O)c1cccnc1/C=N/O`, the GI50 was 24 µM (inactive) with ACHN; 67.1 µM (inactive) in the assay on CCRF-CEM; > 100 µM (inactive) in the assay with HCT-116; > 100 µM (inactive) with KM12; > 100 µM (inactive) in the assay with LOX IMVI; 68.2 µM (inactive) in the assay with MOLT-4. Moreover, the GI50 in the assay with Malme-3M, in the assay with NCI-H23, in the assay on NCI-H522, with OVCAR-8, in the assay with SK-MEL-5 and with SNB-19 was > 100 µM (inactive) throughout. The GI50 in the assay with SNB-75 is > 100 µM (inactive); in the assay with SR it was > 100 µM (inactive); in the assay with SW-620, 58.6 µM (inactive); in the assay with UACC-257, > 100 µM (inactive).

Turning to `COC(CC1(OC)OC(=O)C=C1N)OC` (stereo unspecified), the GI50 with ACHN, in the assay on CCRF-CEM, in the assay with HCT-116, with KM12, with LOX IMVI and in the assay on MOLT-4 was > 100 µM (inactive) in each case. Besides, the GI50 in the assay with Malme-3M, with NCI-H23, in the assay with NCI-H522, in the assay with OVCAR-8, with SK-MEL-5 and in the assay with SNB-19 was > 100 µM (inactive) in each case. For the same compound, the GI50 in the assay with SNB-75 is 76.7 µM (inactive); with SR, > 100 µM (inactive); in the assay on SW-620 it was > 100 µM (inactive); in the assay with UACC-257, > 100 µM (inactive).

In the case of `O=C(Nc1nc2ccccc2n1Cc1ccccc1)NC12CC3CC(CC(C3)C1)C2`, the GI50 in the assay on ACHN is 44.7 µM (inactive); in the assay with CCRF-CEM it was > 100 µM (inactive); in the assay on HCT-116, 30.4 µM (inactive); with KM12, > 100 µM (inactive); with LOX IMVI it was 40.3 µM (inactive); with MOLT-4, > 100 µM (inactive). Also, the GI50 in the assay with Malme-3M is 39.6 µM (inactive); in the assay with NCI-H23, 42.9 µM (inactive); with NCI-H522, 44.7 µM (inactive); in the assay with OVCAR-8, > 100 µM (inactive); with SK-MEL-5, 54.6 µM (inactive); with SNB-19 it was 44.1 µM (inactive). Besides, the GI50 with SNB-75 was 22.4 µM (inactive); in the assay with SR, 80.2 µM (inactive); with SW-620, > 100 µM (inactive); with UACC-257, > 100 µM (inactive).

Consider `COC(=O)c1cccc2cccc(C(=O)Nc3ccc(C)cc3C)c12`, for which the GI50 in the assay on ACHN is 67.1 µM (inactive); with CCRF-CEM, 3.72 µM (inactive); in the assay on HCT-116 it was > 100 µM (inactive); in the assay on KM12, > 100 µM (inactive); in the assay on LOX IMVI, > 100 µM (inactive); with MOLT-4, 48.5 µM (inactive). For the same compound, the GI50 is > 100 µM (inactive) in the assay on Malme-3M; > 100 µM (inactive) with NCI-H23; 70.1 µM (inactive) in the assay on NCI-H522; > 100 µM (inactive) in the assay with OVCAR-8; > 100 µM (inactive) in the assay with SK-MEL-5; > 100 µM (inactive) in the assay on SNB-19. Moreover, the GI50 was > 100 µM (inactive) in the assay with SNB-75, 37.6 µM (inactive) with SR, > 100 µM (inactive) in the assay with SW-620 and > 100 µM (inactive) in the assay with UACC-257.

For `CC(=O)c1ccc(NC(=O)C(=O)C(C(=O)/C=C/c2ccccc2)C2OC(=O)c3ccccc32)cc1` (stereo unspecified), the GI50 is > 100 µM (inactive) in the assay on ACHN; 53.5 µM (inactive) with CCRF-CEM; > 100 µM (inactive) in the assay on HCT-116; > 100 µM (inactive) in the assay on KM12; > 100 µM (inactive) in the assay with LOX IMVI; 77.4 µM (inactive) with MOLT-4. The GI50 in the assay with Malme-3M, in the assay on NCI-H23, with NCI-H522, in the assay on OVCAR-8, in the assay with SK-MEL-5 and in the assay with SNB-19 was > 100 µM (inactive) throughout. The GI50 is > 100 µM (inactive) in the assay on SNB-75, 60.8 µM (inactive) in the assay on SR, > 100 µM (inactive) in the assay on SW-620 and > 100 µM (inactive) in the assay with UACC-257.

On to `CCCCCCC(O)C/C=C/CCCCCC/C(C(=O)OC)=C(/O)C(=O)OCC` (stereo unspecified), for which the GI50 in the assay on ACHN was > 100 µM (inactive); in the assay with CCRF-CEM, > 100 µM (inactive); with HCT-116, > 100 µM (inactive); with KM12, > 100 µM (inactive); in the assay with LOX IMVI it was > 100 µM (inactive); with MOLT-4, 72.8 µM (inactive). The GI50 in the assay with Malme-3M was > 100 µM (inactive); in the assay on NCI-H23 it was > 100 µM (inactive); with NCI-H522, 85.1 µM (inactive); with OVCAR-8 it was > 100 µM (inactive); with SK-MEL-5, > 100 µM (inactive); in the assay with SNB-19, > 100 µM (inactive). In addition, the GI50 with SNB-75 was > 100 µM (inactive); in the assay with SR, 7.93 µM (inactive); in the assay with SW-620 it was > 100 µM (inactive); in the assay on UACC-257, > 100 µM (inactive).
